From patent US9416138B2, “Benzyl sulfonamide compounds useful as MoGAT-2 inhibitors” (Eli Lilly and Company, priority 2012, dated 2016) come the findings set out here.

Structures can show the parent of a compound that is named as a salt.

In assay [1] the target is T1, human MoGAT-2 (Homo sapiens, UniProt Q3SYC2). The assay is described as follows: Inhibitory Activity in MOGAT-2 Cell Assay (Caco-2 cells stably transfected with human MoGAT-2, HDG substrate, LC-MS). It counts as cell-based. Details: expressed in transfected cells. The conditions noted are these: Caco-2 cells expressing human MoGAT-2; 4 hours treatment with HDG/DOPC; read-out: C50 nM (Std Dev.; n*). As to the method:
The inhibitory activity of compounds against human MoGAT-2 in a cell environment is evaluated in this assay. Caco-2 is a human colon carcinoma cell line and is often used as a model for intestinal epithelial cells. […] The substrate is delivered to cells using as a mixture with DOPC in the form of sonicated vesicles. Seed the Caco2 cells onto 100 mm dishes to be 80% confluent after 24 hours in complete media (3/1 DMEM: F12+10% FBS+20 mM HEPES+gentamicin). Transfect the cells with hMoGAT-2 plasmid (MOGAT-2-pCDNA3.1-Hygro) using Lipofectamine 2000 (Invitrogen). After a 6 hour exposure to the transfection mixture, wash the cells three times in PBS and then add media. Incubate the cells for an additional 18 hours incubation, trypsinize the cells and serially dilute them into 100 mm dishes. Add complete media+400 μg/ml hygromycin and incubate until clones appear. Isolate and transfer the clones into 24 well dishes and grow to confluency. Prepare the RNAs from these clones using a Qiagen RNAeasy kit. Perform Taqman analysis using an ABI inventoried assay (HS00228262) on a 7900 Sequence Detection System (ABI). Analyze the lysates from these clones by Western blot analysis using a goat polyclonal antibody (Santa Cruz, SC-32392 to confirm human MoGAT-2 expression of a 38 kD protein corresponding to MoGAT-2. […] Add 20 ml of buffer (150 mM Tris-Cl pH 7.4, 250 mM sucrose, 1 mM EDTA) to the dried HDG/DOPC mixture while sonicating until the solution becomes clear. Plate the Caco2 cells into a poly-D-lysine coated 96-well plate (the “Cell Plate”) at 37° C., 5% CO2 overnight. […] Trypsinize the cells with 50 μl of trypsin solution and add 50 μl of PBS. Immediately freeze the cells on dry ice and store at -20° C. for LC-MS analysis. Extract the cells with chloroform/methanol as follows: transfer the cells to a 2 ml plate; wash the cell plate with 200 μL methanol and then transfer the methanol wash to the 2 ml plate; wash the cell plate again with 200 μL PBS and transfer the PBS wash to the 2 ml plate. Add chloroform (400 μL) with an internal standard (19.52 ng/mL) DAG (15:0,15:0 (Sigma)), D5-TAG (39.03 ng/mL) CDN (16,16,16) to the 2 mL Plate. Turn the sealed 2 mL Plate up and down (10×), then vortex and spin. Remove 400 μL of the lower layer from the 2 mL plate and add to the wells of another plate the “Final Plate”. Add CHCl3:MeOH (400 μL 2:1) to the 2 mL Plate. Again turn the sealed 2 mL Plate up and down (10×), vortex and spin. Remove 220 μL of the lower layer from the 2 mL Plate and add to the Final Plate. Dry the Final Plate and reconstitute with […] of IPA. […] Monitor the channels to collect data for the D5 C16 TAG internal standard as well as the ether TAG, and […] and […] natural TAGs. Solvent A is 80/20 H2O/Methanol with 20 μM ammonium acetate. Solvent B is 50/50 IPA/THF with 20 μM ammonium acetate. Flow rate is 0.4 mL/min Wash solvents are H2O/MeOH and DCM. Using Xcalibur software extract the areas of the peaks of interest, and export the data to Excel which uses the following formula: (area of ether TAG/area of […] natural TAG)/Area of IS. This ratio effectively accounts for variance of cell number in each well.

Assay [2] has as its target T1, human MoGAT-2. The assay is described as follows: MOGAT-2 Inhibitory Assay (SF9 cell lysate, 14C-oleoyl-CoA, Microscint E extraction). It counts as biochemical. Details: made in house; host or cells: insect SF9 cells (cell lysate supernatant). The conditions noted are these: human MoGAT-2 expressed in SF9 cells, cell extract; 90 minutes at room temperature. As to the method:
The in vitro inhibitory activity of compounds against human MoGAT-2 is evaluated in this assay. MoGAT-2 transfers an oleoyl group to monooleoyl-glycerol (“MAG”) from oleoyl-CoA to form dioleoyl-glycerol (“DAG”) in the intestinal triglyceride resynthesis pathway. The assay takes advantage of Microscint E extraction, which extracts hydrophobic molecules selectively over hydrophilic ones to separate the ^14C-oleoyl-CoA from ^14C-DAG.
Genetically engineered insect SF9 cells express human MoGAT-2. Prepare the cell lysate in 20 mM of NaCl with protease inhibitor (Roche Cat#11873580001). Homogenize the SF9 cells expressing human MoGAT-2 at 15,000 rpm for 20×2 seconds (PT-3100 Polytrone). Centrifuge the homogenate at 1000 g for 10 minutes at 4° C. Collect the supernatant into a separate tube for protein quantification and activity testing. Purify the glycerol monooleate substrate (Spectrum Chemical, CAS#25496-72-4) chromatographically. Prepare the monoacylglyerol (MAG) substrate in phospholipid vescicles (dioleoyl phosphatidylcholine “DOPC”). Prepare the MAG/DOPC vesicles at 20 mM concentration of total lipids (MAG and DOPC). Prepare different molar ratios of MAG to total lipids for either compound screening (8.9%) or compound kinetic studies (2.6-40%). Mix the appropriate amount of purified MAG and DOPC (Avanti Polar Lipids #850375C) in chloroform in a glass tube. […]

Assay [3] has as its system oil bolus-induced excursion of triglycerides in circulation. The assay is described as follows: Dog Oil Bolus Model. It is filed as in vivo, dog (male beagles). The settings on record: 10 mg/kg dose, olive oil bolus, plasma net TAG AUC, statistically significant (p<0.05). The text has this: Inhibiting MoGAT-2 found in the small intestine may be useful for treating hypertriglyceridemia caused by excessive fat intake Inhibition of MoGAT-2 disrupts resynthesis of triglycerides, which reduces secretion of triglycerides from the intestine. Therefore, MoGAT-2 inhibition interferes with a specific process that leads to eventual secretion of triglycerides into the intestine for eventual circulation through the body. To assess the ability of one or more of the exemplified compounds to inhibit MoGAT-2 induced TAG secretion into the intestine as measured in the blood system, the following protocol can be followed:
Twenty one male beagles are enrolled for each study, each dog selected to have a body weight between 9-13 kg. […]
The analyte is the [M+NH4]+ ion of TAG 18:1 18:1 18:1, which has a mass of 902.8 m/z; the internal standard is D5 TAG 16:0 16:0 16:0, which has a mass of 829.8 m/z. […] The percent inhibition of plasma triglyceride is calculated as follows: the (oil bolus group mean of net TAG AUC−oil bolus group mean of net TAG AUC with compound treatment/oil bolus group mean of net TAG AUC)*100. […] The ability of exemplified compounds of the present invention to inhibit MoGAT-2 activity and reduce TAG absorption in vivo can be further evaluated according to this assay.

T1 sequence (Q3SYC2 whole entry): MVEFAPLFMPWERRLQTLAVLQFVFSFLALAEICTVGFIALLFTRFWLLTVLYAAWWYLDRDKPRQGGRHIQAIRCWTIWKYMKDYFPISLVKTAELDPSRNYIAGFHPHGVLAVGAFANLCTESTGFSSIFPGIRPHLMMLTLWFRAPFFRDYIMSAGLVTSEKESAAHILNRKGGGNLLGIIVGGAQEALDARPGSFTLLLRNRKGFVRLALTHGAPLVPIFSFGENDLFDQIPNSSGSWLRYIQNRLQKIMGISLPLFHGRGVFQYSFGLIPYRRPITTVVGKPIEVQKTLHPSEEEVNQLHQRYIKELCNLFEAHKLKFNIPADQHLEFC

In the case of `C[C@@H](NS(C)(=O)=O)c1ccc(CNCC2COc3ccccc3N2)cc1` (single isomer, unassigned; isomer 2) [Example 14], the IC50 on human MoGAT-2 [1] is 479 nM.

For the compound `C[C@@H](NS(C)(=O)=O)c1ccc(CNC2CCN(c3ccccc3)C2)cc1` (single isomer, unassigned; isomer 2) [Example 19], the IC50 on human MoGAT-2 [1] was determined as 105 nM.

As for `C[C@@H](NS(C)(=O)=O)c1ccc(CNCC2COC(c3ccccc3)CO2)cc1` (single isomer, unassigned; isomer 2) [Example 29], at human MoGAT-2 [1], the IC50 was 294 nM.

As for `CS(=O)(=O)N[C@@H](c1ccc(CNC[C@H]2COc3cccnc3O2)cc1)C(F)(F)F` [Example 1, N-{(1S)-1-[4-({[(3S)-2,3-Dihydro[1,4]dioxino[2,3-b]pyridin-3-ylmethyl]amino}methyl)phenyl]-2,2,2-trifluoroethyl}methanesulfonamide hydrochloride], the values for the IC50 on human MoGAT-2 [2] and at human MoGAT-2 [1] were 2.28 nM and 3.8 nM, respectively.

Consider `C[C@@H](NS(C)(=O)=O)c1ccc(CNC[C@H]2COc3cccnc3O2)cc1.Cl` [Example 2, N-{(1R)-1-[4-({[(3S)-2,3-Dihydro[1,4]dioxino[2,3-b]pyridin-3-ylmethyl]amino}methyl)phenyl]ethyl}methanesulfonamide hydrochloride], for which, in assay [3], the “reduction in TAG 18.1_18.1_18.1” value stood at 67% and the “reduction in total triglycerides” value came out at 77%.

In the case of `CS(=O)(=O)N[C@@H](c1ccc(CNCCN2CCc3ccccc3C2=O)cc1)C(F)(F)F` [Example 31, N-{(1S)-2,2,2-Trifluoro-1-[4-({[2-(1-oxo-3,4-dihydroisoquinolin-2(1H)-yl)ethyl]amino}methyl)phenyl]ethyl}methanesulfonamide hydrochloride], the IC50 at human MoGAT-2 [1] came to 266 nM.
